# Test results as given in BindingDB's records for doi:10.1021/jm00116a002 (Abbott Laboratories, 1992).
# Molecular target: Gastrin/cholecystokinin type B receptor (Cavia porcellus)
# Assay: The compound was tested for the inhibition of [125I]-Bolton-Hunter CCK-8 binding to cholecystokinin type B receptor in guinea pig cerebral cortical
row,SMILES,IC50 [µM]
1,C[C@H](NC(=O)[C@@H](Cc1c[nH]c2ccccc12)NC(=O)c1cnc2ccccc2c1)c1ccccc1,> 10
2,CCOC(=O)CN(Cc1ccccc1)C(=O)[C@@H](Cc1c[nH]c2ccccc12)NC(=O)c1cnc2ccccc2c1,9.2
3,CCCCCN(CCCCC)C(=O)[C@@H](Cc1c[nH]c2ccccc12)NC(=O)c1ccc2cccc(O)c2n1,> 10
4,CCCCCN(CCCCC)C(=O)[C@@H](Cc1c[nH]c2ccccc12)NC(=O)c1ccc(Cl)c(Cl)c1,> 10
5,CCCCCN(CCCCC)C(=O)[C@@H](Cc1c[nH]c2ccccc12)NC(=O)c1c[nH]c2ccccc12,20
6,CN(Cc1ccccc1)C(=O)[C@@H](Cc1c[nH]c2ccccc12)NC(=O)c1cnc2ccccc2c1,10
7,CCCCCN(CCCCC)C(=O)[C@H](Cc1c[nH]c2ccccc12)NC(=O)c1ccc(Cl)c(Cl)c1,> 10
8,CCCCCN(CCCCC)C(=O)[C@@H](Cc1c[nH]c2ccccc12)NC(=O)c1cccc2ccccc12,9.7
9,CCCCCN(CCCCC)C(=O)[C@@H](CC1C(=O)Nc2ccccc21)NC(=O)c1cnc2ccccc2c1 (some centres not stated),4.1
10,CCCCCN(CCCCC)C(=O)[C@@H](Cc1c[nH]c2ccccc12)NC(=O)c1ccc2ccccc2c1,11

# Molecular target: Gastrin/cholecystokinin type B receptor (Cavia porcellus)
# Assay: The compound was tested for the inhibition of [125I]-Bolton-Hunter CCK-8 binding to cholecystokinin type B receptor in guinea pig cerebral cortical; Not determined
row,SMILES,IC50 [µM]
1,CCCCCN(CCCCC)C(=O)[C@@H](Cc1c(Sc2ccccc2[N+](=O)[O-])[nH]c2ccccc12)NC(=O)c1cnc2ccccc2c1,> 10
2,CCCCCN(CCCCC)C(=O)[C@@H](Cc1c[nH]c2ccccc12)NC(=O)/C=C/c1cccnc1,> 10
